Test results taken from PubChem BioAssay (NCI).
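96-well plates; 48 h exposure; 5 concentrations. Endpoints by linear interpolation between flanking doses. Not reached: highest tested concentration assigned. GI50 = concentration required for 50% inhibition of growth. TGI marks complete inhibition of growth.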

Columns and labels:
Assay in all cases: DTP human tumour cell line panel, 48 h; in the data active = GI50 below about 0.43 µM; inactive = the rest
SW-620 colon = system: SW-620 colon
MCF7 breast = system: MCF7 breast
SNB-19 CNS = system: SNB-19 CNS
HT29 colon = system: HT29 colon
SK-MEL-28 melanoma = system: SK-MEL-28 melanoma
IGROV1 ovarian = system: IGROV1 ovarian
NCI-H522 lung = system: NCI-H522 lung
UO-31 renal = system: UO-31 renal
HOP-62 NSCLC = system: HOP-62 NSCLC
SK-MEL-5 melanoma = system: SK-MEL-5 melanoma
SK-OV-3 ovarian = system: SK-OV-3 ovarian
MALME-3M melanoma = system: MALME-3M melanoma
NCI-H226 lung = system: NCI-H226 lung
NCI-H460 lung = system: NCI-H460 lung
T-47D breast = system: T-47D breast
RPMI-8226 leukemia = system: RPMI-8226 leukemia
LOX IMVI melanoma = system: LOX IMVI melanoma
HCC-2998 colon = system: HCC-2998 colon
EKVX NSCLC = system: EKVX NSCLC
SF-268 CNS = system: SF-268 CNS
HOP-92 NSCLC = system: HOP-92 NSCLC
COLO 205 colon = system: COLO 205 colon
UACC-62 melanoma = system: UACC-62 melanoma
K-562 leukemia = system: K-562 leukemia
DU-145 prostate = system: DU-145 prostate
OVCAR-5 ovarian = system: OVCAR-5 ovarian
HS 578T breast = system: HS 578T breast
U251 CNS = system: U251 CNS
UACC-257 melanoma = system: UACC-257 melanoma
ACHN renal = system: ACHN renal
NCI-H23 lung = system: NCI-H23 lung
PC-3 prostate = system: PC-3 prostate
KM12 colon = system: KM12 colon
MOLT-4 leukemia = system: MOLT-4 leukemia
SNB-75 CNS = system: SNB-75 CNS
SR leukemia = system: SR leukemia
OVCAR-8 ovarian = system: OVCAR-8 ovarian
TK-10 renal = system: TK-10 renal
OVCAR-4 ovarian = system: OVCAR-4 ovarian
M14 melanoma = system: M14 melanoma
BT-549 breast = system: BT-549 breast
CCRF-CEM leukemia = system: CCRF-CEM leukemia
SN12C renal = system: SN12C renal
A498 renal = system: A498 renal
SF-539 CNS = system: SF-539 CNS
HCT-116 colon = system: HCT-116 colon
HL-60(TB) leukemia = system: HL-60(TB) leukemia
NCI/ADR-RES ovarian = system: NCI/ADR-RES ovarian
SK-MEL-2 melanoma = system: SK-MEL-2 melanoma
A549 NSCLC = system: A549 NSCLC
786-0 renal = system: 786-0 renal
CAKI-1 renal = system: CAKI-1 renal
SF-295 CNS = system: SF-295 CNS
HCT-15 colon = system: HCT-15 colon
RXF 393 renal = system: RXF 393 renal
OVCAR-3 ovarian = system: OVCAR-3 ovarian
MDA-MB-435 = system: MDA-MB-435
MDA-MB-231 breast = system: MDA-MB-231 breast

O=C(NCCCc1cn[nH]c1)c1ccc(-c2ccncc2)c(C#Cc2ccc(F)cc2)c1
> 70.1 µM: TGI (UACC-62 melanoma)
active: GI50 (SW-620 colon) < 0.01 µM | GI50 (SNB-19 CNS) 0.229 µM | GI50 (HT29 colon) < 0.01 µM | GI50 (IGROV1 ovarian) 0.0282 µM | GI50 (NCI-H522 lung) < 0.0406 µM | GI50 (NCI-H460 lung) 0.145 µM | GI50 (RPMI-8226 leukemia) < 0.0113 µM | GI50 (COLO 205 colon) < 0.01 µM | GI50 (K-562 leukemia) < 0.01 µM | GI50 (DU-145 prostate) < 0.01 µM | GI50 (OVCAR-5 ovarian) 0.122 µM | GI50 (U251 CNS) 0.243 µM | GI50 (PC-3 prostate) < 0.01 µM | GI50 (KM12 colon) < 0.0155 µM | GI50 (OVCAR-8 ovarian) < 0.01 µM | GI50 (M14 melanoma) < 0.01 µM | GI50 (BT-549 breast) 0.369 µM | GI50 (CCRF-CEM leukemia) < 0.01 µM | GI50 (SN12C renal) < 0.01 µM | GI50 (SF-539 CNS) < 0.01 µM | GI50 (HCT-116 colon) < 0.01 µM | GI50 (NCI/ADR-RES ovarian) < 0.0116 µM | GI50 (HCT-15 colon) < 0.01 µM | GI50 (MDA-MB-435) < 0.01 µM
14.5 µM: TGI (SF-539 CNS)
47.9 µM: TGI (SF-295 CNS)
14.6 µM: TGI (HL-60(TB) leukemia)
> 83.2 µM: TGI (KM12 colon)
53.2 µM: TGI (NCI-H522 lung)
87 µM: TGI (HOP-92 NSCLC)
> 64.1 µM: TGI (786-0 renal)
54.2 µM: TGI (MALME-3M melanoma)
> 57 µM: TGI (MOLT-4 leukemia)
46.1 µM: TGI (COLO 205 colon)
60.9 µM: TGI (BT-549 breast)
19.8 µM: TGI (RXF 393 renal)
11 µM: TGI (T-47D breast)
36.7 µM: TGI (HT29 colon)
76.8 µM: TGI (PC-3 prostate)
26.1 µM: TGI (HCC-2998 colon)
41.9 µM: TGI (NCI-H460 lung)
> 70.2 µM: TGI (MCF7 breast)
> 67.2 µM: TGI (UO-31 renal)
> 100 µM: TGI (SW-620 colon) | TGI (SNB-19 CNS) | TGI (SK-MEL-28 melanoma) | TGI (IGROV1 ovarian) | TGI (SK-OV-3 ovarian) | TGI (EKVX NSCLC) | TGI (SF-268 CNS) | TGI (K-562 leukemia) | TGI (DU-145 prostate) | TGI (OVCAR-5 ovarian) | TGI (HS 578T breast) | TGI (U251 CNS) | TGI (UACC-257 melanoma) | TGI (ACHN renal) | TGI (NCI-H23 lung) | TGI (SNB-75 CNS) | TGI (SR leukemia) | TGI (OVCAR-8 ovarian) | TGI (TK-10 renal) | TGI (OVCAR-4 ovarian) | TGI (CCRF-CEM leukemia) | TGI (SN12C renal) | TGI (NCI/ADR-RES ovarian) | TGI (A549 NSCLC) | TGI (CAKI-1 renal) | TGI (OVCAR-3 ovarian) | TGI (MDA-MB-231 breast)
> 74.1 µM: TGI (SK-MEL-2 melanoma)
> 64.9 µM: TGI (HOP-62 NSCLC)
> 57.9 µM: TGI (HCT-15 colon)
16.6 µM: TGI (SK-MEL-5 melanoma)
inactive: GI50 (MCF7 breast) 1.9 µM | GI50 (SK-MEL-28 melanoma) 14.4 µM | GI50 (UO-31 renal) 3.4 µM | GI50 (HOP-62 NSCLC) 5.49 µM | GI50 (SK-MEL-5 melanoma) 2.3 µM | GI50 (SK-OV-3 ovarian) 8.96 µM | GI50 (MALME-3M melanoma) 10.2 µM | GI50 (NCI-H226 lung) 6.2 µM | GI50 (LOX IMVI melanoma) 0.913 µM | GI50 (EKVX NSCLC) 8.39 µM | GI50 (SF-268 CNS) 58.8 µM | GI50 (HOP-92 NSCLC) 12.7 µM | GI50 (UACC-62 melanoma) 16.5 µM | GI50 (HS 578T breast) 18.9 µM | GI50 (UACC-257 melanoma) 17.6 µM | GI50 (ACHN renal) 6.91 µM | GI50 (NCI-H23 lung) 14.5 µM | GI50 (MOLT-4 leukemia) 1.02 µM | GI50 (SNB-75 CNS) 8.82 µM | GI50 (SR leukemia) 2.53 µM | GI50 (TK-10 renal) 12.8 µM | GI50 (OVCAR-4 ovarian) 11.6 µM | GI50 (A498 renal) 20.1 µM | GI50 (HL-60(TB) leukemia) 1.85 µM | GI50 (SK-MEL-2 melanoma) 11.5 µM | GI50 (A549 NSCLC) 0.481 µM | GI50 (786-0 renal) 3.66 µM | GI50 (CAKI-1 renal) 6.92 µM | GI50 (RXF 393 renal) 3.58 µM | GI50 (OVCAR-3 ovarian) 6.27 µM | GI50 (MDA-MB-231 breast) 16.4 µM
> 68.5 µM: TGI (A498 renal)
9.54 µM: TGI (RPMI-8226 leukemia)
53.6 µM: TGI (LOX IMVI melanoma)
> 54.7 µM: TGI (M14 melanoma)
15.2 µM: TGI (HCT-116 colon)
51.3 µM: TGI (NCI-H226 lung)
> 87.8 µM: TGI (MDA-MB-435)
